Values of other authors in PubChem BioAssay AID1259409 (Chemical Carcinogenesis Research Information System (CCRIS), 2018).
“And” between values parts separate entries of the source, which are not always exact repeats. Equal values may be shown once.

Tested on: rodent chemically induced tumor inhibition, incidence and multiplicity
Assay: CCRIS tumor inhibitor studies
Details: for tumour outcome (control, treated, inhibition, significance): Route [Inhibitor]: ORAL; for outcome: Carcinogen: 7,12-Dimethylbenz(a)anthracene, 57-97-6, Route [Inhibitor]: Oral (gavage), Species: Rat, Strain/Sex: (16/Group), Target Tissue: Type of Lesion: Mammary Gland: tumor, Dose [Carcinogen]: 100 mg/kg once at 50 days of age, Promoter: None

COc1cc(CC(C)C(C)Cc2ccc(O)c(OC)c2)ccc1O (stereo unspecified)
tumour outcome (control, treated, inhibition, significance) (Carcinogen: 2,2'-DIHYDROXY-DI-N-PROPYLNITROSAMINE, 53609-64-6, N-ETHYL-N-HYDROXYETHYLNITROSAMINE, 13147-25-6, 3,2'-DIMETHYL-1,4-, Carcinogen: 2,2'-DIHYDROXY-DI-N-PROPYLNITROSAMINE, 53609-64-6, N-ETHYL-N-HYDROXYETHYLNITROSAMINE, 13147-25-6, 3,2'-DIMETHYL-1,4-, Dose [Inhibitor]: 0, 1% IN DIET FOR 4 WK BEGINNING 1 D PRIOR TO FIRST CARCINOGEN DOSE (STUDY DURATION: 36 WK), Species: RAT, Strain/Sex: F344/MALE, Target Tissue: Type of Lesion: KIDNEY: ADENOMA, Dose [Carcinogen]: 1000 MG/KG BW DHPN TWICE, 1500 MG/KG EHEN TWICE, 75 MG/KG BW DMAB 3 TIMES, SEQUENTIALLY OVER 3 WK, Promoter: NONE USED): 6/10 (60%), 5/12 (42%), 30%, not significant
tumour outcome (control, treated, inhibition, significance) (Carcinogen: 2,2'-DIHYDROXY-DI-N-PROPYLNITROSAMINE, 53609-64-6, N-ETHYL-N-HYDROXYETHYLNITROSAMINE, 13147-25-6, 3,2'-DIMETHYL-1,4-, Carcinogen: 2,2'-DIHYDROXY-DI-N-PROPYLNITROSAMINE, 53609-64-6, N-ETHYL-N-HYDROXYETHYLNITROSAMINE, 13147-25-6, 3,2'-DIMETHYL-1,4-, Dose [Inhibitor]: 0, 1% IN DIET FOR 4 WK BEGINNING 1 D PRIOR TO FIRST CARCINOGEN DOSE (STUDY DURATION: 36 WK), Species: RAT, Strain/Sex: F344/MALE, Target Tissue: Type of Lesion: LUNG: ADENOMA, Dose [Carcinogen]: 1000 MG/KG BW DHPN TWICE, 1500 MG/KG EHEN TWICE, 75 MG/KG BW DMAB 3 TIMES, SEQUENTIALLY OVER 3 WK, Promoter: NONE USED): 5/10 (50%), 6/12 (50%), 0%, not significant

NC(=O)CC[C@H](N)C(=O)O
outcome (Dose [Inhibitor]: 0, 1 g/kg/day for 4 wks, study duration 4 wks): 93.8%, 31.2%
outcome (Dose [Inhibitor]: 0, 1 g/kg/day for 11 wks, study duration 11 wks): 93.8%, 43.7%

C[N+](C)(C)CCO
tumour outcome (control, treated, inhibition, significance) (Carcinogen: 3'-METHYL-4-DIMETHYLAMINOAZOBENZENE, 55-80-1, Dose [Inhibitor]: 0.1% IN DIET DAILY FOR 4 WK STARTING AFTER 4 WK OF CARCINOGEN TREATMENT (STUDY DURATION: 20 WK), Species: RAT, Target Tissue: Type of Lesion: LIVER: TUMOR, Dose [Carcinogen]: 0.064% IN DIET DAILY FOR 8 WK 4 WK BEFORE AND ANOTHER 4 WK AFTER AGENT TREATMENT, Promoter: NONE USED): 7/9 (78%), 9/12 (75%), 4%, not calculated
tumour outcome (control, treated, inhibition, significance) (Carcinogen: DIETHYLNITROSAMINE, 55-18-5, Dose [Inhibitor]: 0, 1% IN DIET BEGINNING 1 WK POST CARCINOGEN DOSE (STUDY DURATION: 52 WK), Species: MOUSE, Strain/Sex: C3H/MALE, Target Tissue: Type of Lesion: LIVER: ADENOMA, Dose [Carcinogen]: 150 MG/KG ONCE, Promoter: PHENOBARBITAL, 50-06-6): 16%, 11%, 31%, not calculated
tumour outcome (control, treated, inhibition, significance) (Carcinogen: DIETHYLNITROSAMINE, 55-18-5, Dose [Inhibitor]: 0, 1% IN DIET BEGINNING 1 WK POST CARCINOGEN DOSE (STUDY DURATION: 52 WK), Species: MOUSE, Strain/Sex: C3H/MALE, Target Tissue: Type of Lesion: LIVER: CARCINOMA, Dose [Carcinogen]: 150 MG/KG ONCE, Promoter: PHENOBARBITAL, 50-06-6): 74%, 72%, 3%, not calculated
tumour outcome (control, treated, inhibition, significance) (Carcinogen: DIETHYLNITROSAMINE, 55-18-5, Dose [Inhibitor]: 0, 1% IN DIET BEGINNING 1 WK POST CARCINOGEN DOSE (STUDY DURATION: 52 WK), Species: MOUSE, Strain/Sex: C3H/MALE, Target Tissue: Type of Lesion: LUNG: ADENOMA OR ADENOCARCINOMA, Dose [Carcinogen]: 150 MG/KG ONCE, Promoter: NONE USED): 6/14 (43%), 13/24 (54%), -26%, not calculated
tumour outcome (control, treated, inhibition, significance) (Carcinogen: DIETHYLNITROSAMINE, 55-18-5, Dose [Inhibitor]: 0, 1% IN DIET BEGINNING 1 WK POST CARCINOGEN DOSE (STUDY DURATION: 52 WK), Species: MOUSE, Strain/Sex: C3H/MALE, Target Tissue: Type of Lesion: LUNG: ADENOMA OR ADENOCARCINOMA, Dose [Carcinogen]: 150 MG/KG ONCE, Promoter: PHENOBARBITAL, 50-06-6): 7/19 (37%), 4/18 (22%), 41%, not calculated
tumour outcome (control, treated, inhibition, significance) (Carcinogen: DIETHYLNITROSAMINE, 55-18-5, Dose [Inhibitor]: 0, 1% IN DIET BEGINNING 1 WK PRIOR TO POST CARCINOGEN DOSE (STUDY DURATION: 52 WK), Species: MOUSE, Strain/Sex: C3H/MALE, Target Tissue: Type of Lesion: LIVER: ADENOMA, Dose [Carcinogen]: 150 MG/KG ONCE, Promoter: NONE USED): 14%, 21%, -50%, not calculated
tumour outcome (control, treated, inhibition, significance) (Carcinogen: ETHIONINE, 13073-35-3, Dose [Inhibitor]: 2.1 MMOL/100 G DIET DAILY FOR 8 MO ADMINISTERED SIMULTANEOUSLY WITH CARCINOGEN FOLLOWED BY 2 MO ON BASAL DIET (STUDY DUR, Species: RAT, Strain/Sex: WISTAR/MALE, FEMALE, Target Tissue: Type of Lesion: LIVER: CARCINOMA, Dose [Carcinogen]: 0.25% OF DIET DAILY FOR 8 MO, Promoter: NONE USED): 9/10 (90%), 5/9 (56%), 38%, not calculated
tumour outcome (control, treated, inhibition, significance) (Carcinogen: ETHIONINE, 13073-35-3, Dose [Inhibitor]: 4.2 MMOL/100 G DIET DAILY FOR 8 MO ADMINISTERED SIMULTANEOUSLY WITH CARCINOGEN FOLLOWED BY 4 MO ON BASAL DIET (STUDY DUR, Species: RAT, Strain/Sex: WISTAR/MALE, Target Tissue: Type of Lesion: LIVER: CARCINOMA, Dose [Carcinogen]: 0.25% OF DIET DAILY FOR 8 MO, Promoter: NONE USED): 8/8 (100%), 6/10 (60%), 40%, not calculated
tumour outcome (control, treated, inhibition, significance) (Carcinogen: ETHIONINE, 13073-35-3, Dose [Inhibitor]: 5.7 MMOL/100 G DIET DAILY FOR 8 MO ADMINISTERED SIMULTANEOUSLY WITH CARCINOGEN FOLLOWED BY 4 MO ON BASAL DIET (STUDY DUR, Species: RAT, Strain/Sex: WISTAR/MALE, Target Tissue: Type of Lesion: LIVER: CARCINOMA, Dose [Carcinogen]: 0.25% OF DIET DAILY FOR 8 MO, Promoter: NONE USED): 8/8 (100%), 7/10 (70%), 30%, not calculated

CC(=O)O[C@H]1CC(C)(C)C(=C=C/C(C)=C/C=C/C(C)=C/C=C/C=C(C)/C=C/C=C(\C)C(=O)C[C@@]23O[C@]2(C)C[C@@H](O)CC3(C)C)[C@](C)(O)C1
tumour outcome (control, treated, inhibition, significance) (Carcinogen: N-ETHYL-N'-NITRO-N-NITROSOGUANIDINE, 70-25-7, Dose [Inhibitor]: 0, 0.005% IN DRINKING WATER (DISSOLVED IN 50 MG/ML DMSO) FOR 4 WK BEGINNING POST CARCINOGEN TREATMENT FOLLOWED BY 12 WK, Species: MOUSE, Strain/Sex: C57BL/MALE, Target Tissue: Type of Lesion: DUODENUM: TUMORS, Dose [Carcinogen]: 100 MG/L IN DRINKING WATER AD LIBITUM FOR 4 WK, Promoter: NONE USED): 14/28 (78%), 13/20 (65%), 17%, not significant
tumour outcome (control, treated, inhibition, significance) (Carcinogen: N-ETHYL-N'-NITRO-N-NITROSOGUANIDINE, 70-25-7, Dose [Inhibitor]: 0, 0.005% IN DRINKING WATER (DISSOLVED IN 50 MG/ML DMSO) FOR 16 WK BEGINNING POST CARCINOGEN TREATMENT (STUDY DURATION:, Species: MOUSE, Strain/Sex: C57BL/MALE, Target Tissue: Type of Lesion: DUODENUM: TUMORS, Dose [Carcinogen]: 100 MG/L IN DRINKING WATER AD LIBITUM FOR 4 WK, Promoter: NONE USED): 14/21 (67%), 7/20 (35%), 48%, p<0.05 and 14/28 (78%), 6/20 (30%), 62%, p<0.005
tumour outcome (control, treated, inhibition, significance) (Carcinogen: N-ETHYL-N'-NITRO-N-NITROSOGUANIDINE, 4245-77-6, Dose [Inhibitor]: 0, 0.005% IN DRINKING WATER BEGINNING POST CARCINOGEN TREATMENT AND CONTINUING FOR 16 WK (STUDY DURATION: 20 WK), Species: MOUSE, Strain/Sex: C57BL/MALE, Target Tissue: Type of Lesion: DUODENUM: TUMOR, Dose [Carcinogen]: 100 MG/L DRINKING WATER FOR 4 WK, Promoter: NONE USED): 14/21 (67%), 7/20 (35%), 48%, p<0.05
